Reference: patent US9795694B2, “Imaging beta-amyloid peptides aggregation” (Hong Kong Baptist University, priority 2014, dated 2017)
Entries after “also recorded” stand apart in the source; their conditions may differ.

Tests used:
[1] = molecular target: T1, Aβ (1-40) peptide aggregation / fibril formation (Homo sapiens, UniProt P05067); assay: TIRFM study of inhibition of Aβ fibril formation; format: biochemical; details: for inhibition of Aβ peptide aggregation and fibril growth: TIRFM, ThT dye excited at 445 nm
T1 construct: Aβ(1-40) fibrils prepared from Aβ40 with seed incubated at 37° C. for an hour in buffer
Excerpt: These images were obtained by an addition of ThT dye excited at 445 nm.
The panels below show the images of seed only and Aβ fibril formation without the carbazole-based fluorophore for comparison. These images were obtained by an addition of ThT dye excited at 445 nm.
A novel series of water-soluble carbazole-based fluorophores has been designed and developed. […] Upon binding with Aβ peptides, there is about 8- to about 82-fold increase in fluorescence intensity concomitant with the substantial blue shifts (Δλ=14-22 nm) in the emission spectra of the fluorophores (FIG. 2A-2H). […] (e.g. Ffibril/FSLOH=81.5 vs. Fpeptide/FSLOH=6.3). Because of such strong increase in fluorescence, the signal-to-noise ratio is so high that imaging of single fibrils is possible. (FIG. 3A-3C) Compared to common commercial labeling dyes for Aβ such as Thioflavin-T and Congo Red, the carbazole-based fluorophores of the present invention provide an advantage of a wide range of excitation and emission tuning in visible to infra-red region (FIG. 4A-4B). Some of these molecules, e.g., SAM and SAOH, even emit at ˜[…] (FIG. 5A-5B), which can potentially be used for near infra-red fluorescence imaging. In addition to fluorescence titration, the binding of Aβ peptide and fibril with the carbazole-based fluorophores of the present invention were further confirmed by circular dichroism spectroscopy (FIG. 6A-6B), and electrospray ionization-mass spectrometry (ESI-MS). Total Internal Reflection Fluorescence Microscope (TIRFM) technique developed by us was used to investigate the inhibition effects of these functional fluorophores on Aβ fibril formation (FIG. 7A-7F). […] Such inhibitory effect was further confirmed by Transmission Electron Microscopy (TEM) study (FIG. 8A-8B).
The inhibitory effect of the carbazole-based fluorophores of the present invention on Aβ fibril growth was further investigated by measuring the (average) length of the Aβ fibrils formed after incubation of the Aβ monomers for 60 min with additions of SLOH at different time points during this period (FIG. 9A-9B). Parallel experiments conducted without any addition of SLOH were used as controls.
Total Internal Reflection Fluorescence Microscope (TIRFM) technique developed was used to investigate the inhibition effects of these functional fluorophores on Aβ (1-40) fibril formation (FIG. 17).

SH-SY5Y neuronal cell [2] = assay: MTT reduction assay, cytotoxicity
Description: Human neuroblastoma SH-SY5Y neuronal cells were incubated with different concentrations of SLCOOH-conjugated SiO2@Fe3O4 nanoparticles at 37° C. for 24 h.

[3] = tested on: primary cortical neural cells; assay: Protection from Aβ-induced cytotoxicity; format: cell-based; details: Aβ monomer, oligomers and fibrils
Excerpt: (§1) The reactive oxygen species (ROS) induced by the Aβ toxicity causes much damage in AD.

[4] = tested on: ROS in primary cortical cells; assay: Reduction of ROS induced by Aβ species; format: cell-based
Excerpt: as §1

[5] = Blood-brain barrier penetration after tail vein injection; format: in vivo; details: mice
Excerpt: (§2) However, in order for the observed neuroprotective effect to be clinically useful, these molecules need to be able to pass through the blood-brain barrier.

Aβ plaques = assay: Aβ plaque targeting in brain, co-stained with ThT or Aβ antibody; format: in vivo, transgenic mice; details: brain slides co-stained with ThT or Aβ antibody with DAB stain
Excerpt: as §2
(A) Differential Interference Contrast (DIC) image of the brain slice of a 12-month-old APP/PS1 Tg mouse. (B) Histological staining of the brain slice with SLCOOH-conjugated SiO2@Fe3O4 nanoparticles (λex=500 nm, λem=620-680 nm). (C) ThT fluorescence images of the brain slice captured with λex=405 nm, λem=460-490 nm (D) The superimposed images of (B) and (C).

[6] = Fluorescence spectra in phosphate buffer solution; format: physicochemical
Excerpt: (§3) A novel series of water-soluble carbazole-based fluorophores has been designed and developed. […] Upon binding with Aβ peptides, there is about 8- to about 82-fold increase in fluorescence intensity concomitant with the substantial blue shifts (Δλ=14-22 nm) in the emission spectra of the fluorophores (FIG. 2A-2H). […] (e.g. Ffibril/FSLOH=81.5 vs. Fpeptide/FSLOH=6.3). Because of such strong increase in fluorescence, the signal-to-noise ratio is so high that imaging of single fibrils is possible. (FIG. 3A-3C) Compared to common commercial labeling dyes for Aβ such as Thioflavin-T and Congo Red, the carbazole-based fluorophores of the present invention provide an advantage of a wide range of excitation and emission tuning in visible to infra-red region (FIG. 4A-4B). Some of these molecules, e.g., SAM and SAOH, even emit at ˜[…] (FIG. 5A-5B), which can potentially be used for near infra-red fluorescence imaging. In addition to fluorescence titration, the binding of Aβ peptide and fibril with the carbazole-based fluorophores of the present invention were further confirmed by circular dichroism spectroscopy (FIG. 6A-6B), and electrospray ionization-mass spectrometry (ESI-MS). Total Internal Reflection Fluorescence Microscope (TIRFM) technique developed by us was used to investigate the inhibition effects of these functional fluorophores on Aβ fibril formation (FIG. 7A-7F). […]

SH-SY5Y neuronal cell [7] = assay: Protection of neuronal cells from Aβ oligomer and fibril toxicity; format: cell-based, Human; details: incubated for 2 and 6 hours
[8] = tested on: Aβ(1-40) and Aβ(1-42) peptides; assay: Fluorescence titration of the fluorophores with Aβ peptides; format: binding; details: Aβ peptide
Excerpt: as §3

Aβ(1-40) fibrils = molecular target: T2, Aβ(1-40) fibrils (Homo sapiens, UniProt P05067); assay: Fluorescence titration of the fluorophores with Aβ fibrils; format: binding
T2 construct: Aβ(1-40) fibrils prepared from Aβ40 with seed incubated at 37° C. for an hour in buffer
Excerpt: as §3

T1 sequence (P05067 672-711): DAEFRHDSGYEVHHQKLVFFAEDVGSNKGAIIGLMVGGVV
T2 sequence (P05067 672-711): as above

Row | SMILES | inhibition of Aβ peptide aggregation and fibril growth [1] | toxicity (in words) (SH-SY5Y neuronal cell [2]) | ability to penetrate the blood-brain barrier [5] | targeting of / selectivity towards Aβ plaques in brain (Aβ plaques) | also measured
1 | COCCOCCn1c2ccc(F)cc2c2cc(/C=C/c3cc[n+](CCO)c4ccccc34)ccc21 [F-SLOH, (E)-4-(2-(6-Fluoro-9-(2-(2-methoxyethoxy)ethyl)-9H-carbazol-3-yl)vinyl)-1-(2-hydroxyethyl)quinolin-1-ium chloride] | inhibit Aβpeptide aggregation and prevent fibril growth; also recorded: inhibit Aβ (1-40) peptide aggregation and prevent fibril growth; also recorded: potent Aβ aggregation inhibitors | non-toxic | show blood-brain permeability; also recorded: ability to cross the blood-brain barrier | target the Aβ plaques | protection from the neurotoxic effects of the Aβ species [3]: protected from the neurotoxic effects of the Aβ species; also recorded: protective effect against the neurotoxic activities of the Aβ oligomers and fibrils; reduction of ROS induced by the Aβ species [4]: reduce the ROS induced by the Aβ species
2 | Cn1c2ccccc2c2cc(/C=C/c3cc[n+](C)c4ccccc34)ccc21 [Me-SLM, (E)-1-methyl-4-(2-(9-methyl-9H-carbazol-3-yl)vinyl)quinolinium iodide] | inhibit Aβ peptide aggregation and prevent fibril growth |  |  |  | 
3 | COCCOCCn1c2ccccc2c2cc(/C=C/c3c4ccccc4[n+](C)c4ccccc34)ccc21.[I-] [SAM, (E)-9-(2-(9-(2-(2-methoxyethoxy)ethyl)-9H-carbazol-3-yl)vinyl)-10-methylacridinium iodide] | inhibit Aβ peptide aggregation and prevent fibril growth |  |  |  | emission wavelength [6]: ~760 nm
4 | COCCOCCn1c2ccccc2c2cc(/C=C/c3c4ccccc4[n+](CCO)c4ccccc34)ccc21.[I-] [SAOH, (E)-10-(2-hydroxyethyl)-9-(2-(9-(2-(2-methoxyethoxy)ethyl)-9H-carbazol-3-yl)vinyl)-acridinium iodide] | inhibition of Aβ fibril formation; also recorded: inhibit Aβ peptide aggregation and prevent fibril growth; also recorded: potent inhibitor of Aβ aggregation | non-toxic |  |  | protection from the neurotoxic effects of Aβ oligomers and fibrils (SH-SY5Y neuronal cell [7]): protected from the neurotoxic effects of the Aβ oligomers and fibrils; also recorded: protective effect against the neurotoxic activities of the Aβ oligomers and fibrils; emission wavelength [6]: ~760 nm
5 | COCCOCCn1c2ccccc2c2cc(/C=C/c3cc[n+](CC(N)=O)c4ccccc34)ccc21 [SLAD, (E)-1-(2-Amino-2-oxoethyl)-4-(2-(9-(2-(2-methoxyethoxy)ethyl)-9H-carbazol-3-yl)vinyl)quinolin-1-ium bromide] | inhibit Aβpeptide aggregation and prevent fibril growth; also recorded: inhibit Aβ (1-40) peptide aggregation and prevent fibril growth; also recorded: potent Aβ aggregation inhibitors | non-toxic | show blood-brain permeability; also recorded: ability to cross the blood-brain barrier | target the Aβ plaques; also recorded: colocalization of fluorescence signals of SLAD and Aβ antibody | protection from the neurotoxic effects of the Aβ species [3]: protected from the neurotoxic effects of the Aβ species; also recorded: protective effect against the neurotoxic activities of the Aβ oligomers and fibrils; reduction of ROS induced by the Aβ species [4]: reduce the ROS induced by the Aβ species
6 | CCOC(=O)C[n+]1ccc(/C=C/c2ccc3c(c2)c2ccccc2n3CCOCCOC)c2ccccc21 [SLAce, (E)-1-(2-Ethoxy-2-oxoethyl)-4-(2-(9-(2-(2-methoxyethoxy)ethyl)-9H-carbazol-3-yl)vinyl)quinolin-1-ium bromide] | inhibit Aβpeptide aggregation and prevent fibril growth; also recorded: inhibit Aβ (1-40) peptide aggregation and prevent fibril growth |  | show blood-brain permeability |  | 
7 | COCCOCCn1c2ccccc2c2cc(/C=C/c3cc[n+](CC(=O)O)c4ccccc34)ccc21.[Br-] [SLCOOH, (E)-1-(carboxymethyl)-4-(2-(9-(2-(2-methoxyethoxy)ethyl)-9H-carbazol-3-yl)vinyl)quinolin-1-ium bromide] |  | non-toxic | BBB penetrable | able to target the Aβ species in-vivo with high affinity | 
8 | CC[n+]1ccc(/C=C/c2ccc3c(c2)c2ccccc2n3CCOCCOC)c2ccccc21 [SLE, (E)-1-ethyl-4-(2-(9-(2-(2-methoxyethoxy)ethyl)-9H-carbazol-3-yl)vinyl)quinolinium bromide] | inhibit Aβ peptide aggregation and prevent fibril growth |  |  |  | 
9 | COCCOCCn1c2ccccc2c2cc(/C=C/c3cc[n+](CCOCCOC)c4ccccc34)ccc21 [SLG, (E)-1-(2-(2-methoxyethoxy)ethyl)-4-(2-(9-(2-(2-methoxyethoxy)ethyl)-9H-carbazol-3-yl)vinyl)quinolinium iodide] | inhibit Aβpeptide aggregation and prevent fibril growth; also recorded: inhibit Aβ (1-40) peptide aggregation and prevent fibril growth |  | show blood-brain permeability |  | 
10 | COCCOCCn1c2ccccc2c2cc(/C=C/c3cc[n+](CCO)c4ccccc34)ccc21 [SLOH, (E)-1-(2-hydroxyethyl)-4-(2-(9-(2-(2-methoxyethoxy)ethyl)-9H-carbazol-3-yl)vinyl)-quinolinium chloride] | inhibition of Aβ fibril formation; also recorded: inhibit Aβ peptide aggregation and prevent fibril growth; also recorded: potent inhibitor of Aβ aggregation | non-toxic |  | colocalization of fluorescence signals of SLOH and ThT; also recorded: colocalization of fluorescence signals of SLOH and Aβ antibody; also recorded: selectivity of SLOH towards Aβ plaques | Fpeptide/FSLOH fluorescence enhancement [8]: 6.3; Ffibril/FSLOH fluorescence enhancement (Aβ(1-40) fibrils): 81.5; Aβ fibril growth (average fibril length) on addition of the compound ([1]; 50 μM added at different time points within 60 min incubation of Aβ monomer): strongly arrests its fibril growth; protection from the neurotoxic effects of Aβ oligomers and fibrils (SH-SY5Y neuronal cell [7]): protected from the neurotoxic effects of the Aβ oligomers and fibrils; also recorded: protective effect against the neurotoxic activities of the Aβ oligomers and fibrils
11 | COCCOCCn1c2ccccc2c2cc(/C=C/c3cc[n+](CCCO)c4ccccc34)ccc21 [SLOH-Pr, (E)-1-(3-hydroxypropyl)-4-(2-(9-(2-(2-methoxyethoxy)ethyl)-9H-carbazol-3-yl)vinyl)-quinolinium bromide] | inhibit Aβ peptide aggregation and prevent fibril growth |  |  |  | 
